Where “and” joins values, the source holds several entries; their conditions need not be identical. Equal entries are not always repeated.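 Values below derive from 48-hour exposures of cells grown in 96-well plates, with endpoints linearly interpolated between the two concentrations bracketing the appropriate inhibition level. At the GI50, growth is halved. TGI marks complete inhibition of growth.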

Test systems include A498 renal; EKVX NSCLC; HCC-2998 colon; IGROV1 ovarian; K-562 leukemia; NCI-H460 lung; OVCAR-3 ovarian; OVCAR-8 ovarian; SF-268 CNS; UACC-62 melanoma.
Common to all, as to test: DTP human tumour cell line panel, 48 h

By GI50 is commonly meant the concentration giving 50% growth inhibition. A word on the TGI: it is the concentration giving total growth inhibition. A high value points to less potent growth arrest. In the case of `COc1cc(N2CCC(N3CCN(C)CC3)CC2)ccc1Nc1ncc(Cl)c(Nc2ccccc2P(C)(C)=O)n1`, the GI50 with A498 renal was 0.305 µM; in the assay on EKVX NSCLC, 0.472 µM; in the assay on HCC-2998 colon, 3.99 µM; with IGROV1 ovarian it was 0.216 µM; in the assay with K-562 leukemia, 3.45 µM; in the assay with NCI-H460 lung, 2.47 µM. The GI50 with OVCAR-3 ovarian was 2.15 µM; in the assay on OVCAR-8 ovarian, 5.05 µM; in the assay with SF-268 CNS it was 1.34 µM; in the assay on UACC-62 melanoma it was 2.94 µM. Besides, the TGI in the assay with A498 renal was 1.12 µM; in the assay on EKVX NSCLC, above 100 µM; with HCC-2998 colon it was above 100 µM; with IGROV1 ovarian, 0.784 µM; with K-562 leukemia it was above 100 µM; in the assay with NCI-H460 lung, above 40 µM. For the same molecule, the TGI was 38.2 µM with OVCAR-3 ovarian, above 100 µM in the assay with OVCAR-8 ovarian, 14 µM with SF-268 CNS and above 72.2 µM in the assay with UACC-62 melanoma.
For `[N-]=[N+]=NC1(N=[N+]=[N-])C(=O)NN=C(c2ccccc2)C1=O` (stereo not drawn), the TGI in the assay with A498 renal, in the assay with EKVX NSCLC, with HCC-2998 colon, with IGROV1 ovarian, in the assay with K-562 leukemia and in the assay with NCI-H460 lung was above 100 µM in each case. The TGI with OVCAR-3 ovarian is above 100 µM; in the assay on OVCAR-8 ovarian, above 100 µM; in the assay with SF-268 CNS, 28.4 µM; in the assay on UACC-62 melanoma it was above 100 µM.
`CCc1ccccc1NC(=O)/C(CC(=O)c1c(C)n([O-])c2ccccc2[n+]1=O)=N\NS(=O)(=O)c1ccc(C)cc1`: the TGI with A498 renal, in the assay with EKVX NSCLC, in the assay on HCC-2998 colon, in the assay on IGROV1 ovarian, with K-562 leukemia and in the assay on NCI-H460 lung was above 100 µM throughout. The TGI was 80.2 µM in the assay on OVCAR-3 ovarian, above 100 µM in the assay with OVCAR-8 ovarian, above 100 µM in the assay on SF-268 CNS and 67 µM in the assay on UACC-62 melanoma.
Consider `C=C(C)C(=O)NC(N)=NC#N`, for which the GI50 in the assay with A498 renal was 201 µM; with EKVX NSCLC it was 165 µM; with IGROV1 ovarian, 168 µM; in the assay on NCI-H460 lung, 163 µM; in the assay with OVCAR-3 ovarian, 129 µM; with OVCAR-8 ovarian, 119 µM. In addition, the GI50 in the assay on SF-268 CNS is 139 µM; in the assay on UACC-62 melanoma, 87 µM. Further, the TGI was > 46.4 µM and 345 µM with A498 renal; > 90 µM and 392 µM in the assay with EKVX NSCLC; 261 µM with HCC-2998 colon; > 75.1 µM and 309 µM in the assay with IGROV1 ovarian; 51.5 µM and 58.5 µM with K-562 leukemia; 306 µM in the assay on NCI-H460 lung. The TGI is 259 µM with OVCAR-3 ovarian; > 90 µM and 287 µM with OVCAR-8 ovarian; 62.5 µM and 354 µM with SF-268 CNS; > 81.7 µM and 230 µM in the assay on UACC-62 melanoma.
With `C[C@]12CCC3c4ccc(OC(=O)c5ccccc5)cc4CC[C@H]3C1CC[C@@H]2OC(=O)C12OC1CCC2=O` (stereo partly drawn), the TGI in the assay on A498 renal is 14.2 µM; in the assay with EKVX NSCLC it was 15 µM; with HCC-2998 colon, above 71.9 µM; in the assay with IGROV1 ovarian, 9.22 µM; in the assay on K-562 leukemia, 5.06 µM; in the assay with NCI-H460 lung, 8.3 µM. Moreover, the TGI in the assay on OVCAR-3 ovarian amounted to 8.82 µM; in the assay with OVCAR-8 ovarian, 31.3 µM; in the assay with SF-268 CNS it was 14.6 µM; with UACC-62 melanoma, 38.4 µM.
`CC(=O)CC(=O)N(CCN(C(=O)CC(C)=O)c1ccccc1)c1ccccc1`: the TGI with A498 renal, in the assay on EKVX NSCLC, with HCC-2998 colon, with IGROV1 ovarian, in the assay on K-562 leukemia and in the assay with NCI-H460 lung was above 100 µM in each case. Further, the TGI in the assay with OVCAR-3 ovarian, in the assay with OVCAR-8 ovarian, in the assay on SF-268 CNS and in the assay with UACC-62 melanoma was above 100 µM throughout.
For `C/C(=N\O)c1sc(-n2nc(-c3ccccc3)cc2-c2ccccc2)nc1C`, the TGI in the assay with A498 renal is above 31.6 µM; with EKVX NSCLC it was above 31.6 µM; in the assay with HCC-2998 colon it was 18.2 µM; in the assay on IGROV1 ovarian it was 22 µM; in the assay on K-562 leukemia, 24.6 µM; with NCI-H460 lung, 21.6 µM. In addition, the concentration for total growth inhibition (TGI) is above 31.6 µM in the assay on OVCAR-3 ovarian, 18.1 µM in the assay with OVCAR-8 ovarian, 19.8 µM in the assay on SF-268 CNS and 16.9 µM in the assay on UACC-62 melanoma.
For `CCOC(=O)C12CCCC1(O)N(NC(=O)c1cccc(Cl)c1)C(C)=C2C(=O)OC` (stereo not drawn), the TGI in the assay with A498 renal, in the assay on EKVX NSCLC, in the assay with HCC-2998 colon, in the assay on IGROV1 ovarian, in the assay on K-562 leukemia and with NCI-H460 lung was above 100 µM in each case. Besides, the concentration for total growth inhibition (TGI) with OVCAR-3 ovarian, in the assay with OVCAR-8 ovarian, with SF-268 CNS and with UACC-62 melanoma was above 100 µM in each case.
As for `Cc1cc(Cl)ccc1Nc1sc(C(=O)c2cc3cc(Cl)ccc3o2)c(N)c1C#N`, the TGI was 19.2 µM with A498 renal; above 100 µM in the assay on EKVX NSCLC; 7.24 µM with HCC-2998 colon; above 100 µM in the assay on IGROV1 ovarian; above 100 µM in the assay with K-562 leukemia; above 64.3 µM in the assay on NCI-H460 lung. For the same molecule, the TGI is above 55.3 µM in the assay with OVCAR-3 ovarian, above 87.2 µM with OVCAR-8 ovarian, 26.9 µM with SF-268 CNS and above 100 µM with UACC-62 melanoma.
In the case of `Cc1cc(NC(=O)c2ccc(NS(=O)(=O)CCO)cc2N2CCC3(CC2)CC3)nc(N2CCC(F)(F)CC2)n1`, the GI50 in the assay on A498 renal was 16.7 µM; in the assay on EKVX NSCLC it was 14.2 µM; in the assay on HCC-2998 colon it was 1.53 µM; with IGROV1 ovarian it was 16 µM; in the assay on K-562 leukemia, 3.59 µM; in the assay with NCI-H460 lung, 12.6 µM. The GI50 with OVCAR-3 ovarian was 0.0365 µM; in the assay with OVCAR-8 ovarian, 0.114 µM; in the assay on SF-268 CNS, 13.1 µM; in the assay with UACC-62 melanoma, 12.3 µM. In addition, the TGI with A498 renal is 31 µM; with EKVX NSCLC, 28.8 µM; in the assay with HCC-2998 colon, 17.8 µM; with IGROV1 ovarian it was 30.6 µM; in the assay on K-562 leukemia, above 51.4 µM; with NCI-H460 lung, 26.8 µM. Further, the TGI with OVCAR-3 ovarian was 2.49 µM; with OVCAR-8 ovarian, 24.4 µM; with SF-268 CNS, 29 µM; in the assay with UACC-62 melanoma, 24.9 µM.
Regarding `Nc1ncc(-c2cnn(C3CCNCC3)c2)cc1-c1nc2ccccc2o1`, the GI50 with A498 renal was 1.53 µM; in the assay with EKVX NSCLC, 4.4 µM; with HCC-2998 colon, 1.18 µM; with IGROV1 ovarian, 0.211 µM; in the assay with K-562 leukemia, 0.309 µM; with NCI-H460 lung, 0.998 µM. In addition, the GI50 in the assay with OVCAR-3 ovarian is 1.53 µM; with OVCAR-8 ovarian it was 2.59 µM; in the assay with SF-268 CNS, 1.74 µM; in the assay with UACC-62 melanoma it was 1.6 µM. In addition, the TGI turned out to be 3.46 µM in the assay on A498 renal; 17.8 µM in the assay on EKVX NSCLC; 3.09 µM in the assay on HCC-2998 colon; 0.891 µM with IGROV1 ovarian; 1.07 µM in the assay with K-562 leukemia; 2.54 µM in the assay with NCI-H460 lung. Also, the TGI with OVCAR-3 ovarian turned out to be 3.52 µM; in the assay on OVCAR-8 ovarian it was 8.9 µM; with SF-268 CNS it was 4.58 µM; in the assay on UACC-62 melanoma, 3.07 µM.

Values taken from PubChem BioAssay (NCI).
